Reference: US20160367623A1, “AGONISTS OF GUANYLATE CYCLASE USEFUL FOR THE TREATMENT OF GASTROINTESTINAL DISORDERS, INFLAMMATION, CANCER AND OTHER DISORDERS” (priority 2015, published 2016)
Bridge positions count the residues as written; N and C are the ends. Ends that are not written are not given here.

Test system: patients with chronic idiopathic constipation (CIC)
Test: Second phase 3 CIC trial: change from baseline in stool consistency (BSFS)
Format: in vivo, human
[1] = 6 mg, Week 9, ITT Population-Excluding Duplicate Patients
[2] = 6 mg, Week 10, All Randomized (includes Duplicate Patients)
[3] = 6 mg, Week 10, ITT Population-Excluding Duplicate Patients
[4] = 6 mg, Week 11, All Randomized (includes Duplicate Patients)
[5] = 6 mg, Week 11, ITT Population-Excluding Duplicate Patients
[6] = 6 mg, Week 12, All Randomized (includes Duplicate Patients)
[7] = 6 mg, Week 12, ITT Population-Excluding Duplicate Patients
[8] = 6 mg, overall average estimate across the 12-week treatment period, All Randomized (includes Duplicate Patients)
[9] = 6 mg, overall average estimate across the 12-week treatment period, ITT Population
[10] = 6 mg, overall average estimate across the 12-week treatment period, ITT Population-Excluding Duplicate Patients

Substance: Asn^1-Asp^2-Glu^3-Cys^4-Glu^5-Leu^6-Cys^7-Val^8-Asn^9-Val^10-Ala^11-Cys^12-Thr^13-Gly^14-Cys^15-Leu^16 (NDECELCVNVACTGCL; disulfide 4-12, 7-15) [Plecanatide, uroguanylin analogue, guanylate cyclase-C agonist; (C4:C12, C7:C15) bicycle peptide]
- Change from Baseline in Stool Consistency, LS Mean (SE) (6 mg, Week 9, All Randomized (includes Duplicate Patients)): 1.54 (0.073)
- Change from Baseline in Stool Consistency, Difference from Placebo (6 mg, Week 9, ITT Population): 0.68
- Change from Baseline in Stool Consistency, LS Mean (SE) (6 mg, Week 9, ITT Population): 1.57 (0.075)
- Change from Baseline in Stool Consistency, Mean (SD) (6 mg, Week 9, ITT Population): 1.62 (1.507)
- Change from Baseline in Stool Consistency, Difference from Placebo [1]: 0.68
- Change from Baseline in Stool Consistency, LS Mean (SE) [1]: 1.59 (0.075)
- Change from Baseline in Stool Consistency, Mean (SD) [1]: 1.63 (1.510)
- Change from Baseline in Stool Consistency, Difference from Placebo [2]: 0.62
- Change from Baseline in Stool Consistency, LS Mean (SE) [2]: 1.52 (0.073)
- Change from Baseline in Stool Consistency, Difference from Placebo (6 mg, Week 10, ITT Population): 0.62
- Change from Baseline in Stool Consistency, LS Mean (SE) (6 mg, Week 10, ITT Population): 1.55 (0.075)
- Change from Baseline in Stool Consistency, Mean (SD) (6 mg, Week 10, ITT Population): 1.59 (1.432)
- Change from Baseline in Stool Consistency, Difference from Placebo [3]: 0.63
- Change from Baseline in Stool Consistency, LS Mean (SE) [3]: 1.57 (0.075)
- Change from Baseline in Stool Consistency, Mean (SD) [3]: 1.60 (1.437)
- Change from Baseline in Stool Consistency, Difference from Placebo [4]: 0.58
- Change from Baseline in Stool Consistency, LS Mean (SE) [4]: 1.50 (0.073)
- Change from Baseline in Stool Consistency, Difference from Placebo (6 mg, Week 11, ITT Population): 0.57
- Change from Baseline in Stool Consistency, LS Mean (SE) (6 mg, Week 11, ITT Population): 1.53 (0.075)
- Change from Baseline in Stool Consistency, Mean (SD) (6 mg, Week 11, ITT Population): 1.58 (1.499)
- Change from Baseline in Stool Consistency, Difference from Placebo [5]: 0.59
- Change from Baseline in Stool Consistency, LS Mean (SE) [5]: 1.55 (0.076)
- Change from Baseline in Stool Consistency, Mean (SD) [5]: 1.59 (1.504)
- Change from Baseline in Stool Consistency, Difference from Placebo [6]: 0.48
- Change from Baseline in Stool Consistency, LS Mean (SE) [6]: 1.48 (0.074)
- Change from Baseline in Stool Consistency, Difference from Placebo (6 mg, Week 12, ITT Population): 0.49
- Change from Baseline in Stool Consistency, LS Mean (SE) (6 mg, Week 12, ITT Population): 1.51 (0.076)
- Change from Baseline in Stool Consistency, Mean (SD) (6 mg, Week 12, ITT Population): 1.58 (1.487)
- Change from Baseline in Stool Consistency, Difference from Placebo [7]: 0.51
- Change from Baseline in Stool Consistency, LS Mean (SE) [7]: 1.53 (0.076)
- Change from Baseline in Stool Consistency, Mean (SD) [7]: 1.59 (1.492)
- Change from Baseline in Stool Consistency, Difference from Placebo [8]: 0.63
- Change from Baseline in Stool Consistency, LS Mean (SE) [8]: 1.47 (0.059)
- Change from Baseline in Stool Consistency, Difference from Placebo [9]: 0.63
- Change from Baseline in Stool Consistency, LS Mean (SE) [9]: 1.50 (0.061)
- Change from Baseline in Stool Consistency, Difference from Placebo [10]: 0.64
- Change from Baseline in Stool Consistency, LS Mean (SE) [10]: 1.52 (0.061)
- Change from Baseline in Stool Consistency, Mean (SD) (Active Combined, Post-Treatment Week 13, All Randomized (includes Duplicate Patients)): 1.15 (1.387)
- Change from Baseline in Stool Consistency, Mean (SD) (Active Combined, Post-Treatment Week 13, ITT Population): 1.14 (1.392)
- Change from Baseline in Stool Consistency, Mean (SD) (Active Combined, Post-Treatment Week 13, ITT Population-Excluding Duplicate Patients): 1.14 (1.397)
- Change from Baseline in Stool Consistency, Mean (SD) (Active Combined, Post-Treatment Week 14, All Randomized (includes Duplicate Patients)): 1.12 (1.394)
- Change from Baseline in Stool Consistency, Mean (SD) (Active Combined, Post-Treatment Week 14, ITT Population): 1.12 (1.379)
- Change from Baseline in Stool Consistency, Mean (SD) (Active Combined, Post-Treatment Week 14, ITT Population-Excluding Duplicate Patients): 1.12 (1.384)
- Change from Baseline in Stool Consistency, Mean (SD) (Active Combined, Week 1, All Randomized (includes Duplicate Patients)): 1.41 (1.482)
- Change from Baseline in Stool Consistency, Mean (SD) (Active Combined, Week 1, ITT Population): 1.42 (1.490)
- Change from Baseline in Stool Consistency, Mean (SD) (Active Combined, Week 1, ITT Population-Excluding Duplicate Patients): 1.43 (1.482)
- Change from Baseline in Stool Consistency, Mean (SD) (Active Combined, Week 2, All Randomized (includes Duplicate Patients)): 1.41 (1.563)
- Change from Baseline in Stool Consistency, Mean (SD) (Active Combined, Week 2, ITT Population): 1.42 (1.571)
- Change from Baseline in Stool Consistency, Mean (SD) (Active Combined, Week 2, ITT Population-Excluding Duplicate Patients): 1.43 (1.570)
- Change from Baseline in Stool Consistency, Mean (SD) (Active Combined, Week 3, All Randomized (includes Duplicate Patients)): 1.48 (1.526)
- Change from Baseline in Stool Consistency, Mean (SD) (Active Combined, Week 3, ITT Population): 1.49 (1.527)
- Change from Baseline in Stool Consistency, Mean (SD) (Active Combined, Week 3, ITT Population-Excluding Duplicate Patients): 1.49 (1.532)
- Change from Baseline in Stool Consistency, Mean (SD) (Active Combined, Week 4, ITT Population): 1.48 (1.550)
- Change from Baseline in Stool Consistency, Mean (SD) (Active Combined, Week 4, ITT Population-Excluding Duplicate Patients): 1.49 (1.557)
- Change from Baseline in Stool Consistency, Mean (SD) (Active Combined, Week 5, ITT Population): 1.63 (1.530)
- Change from Baseline in Stool Consistency, Mean (SD) (Active Combined, Week 5, ITT Population-Excluding Duplicate Patients): 1.64 (1.535)
- Change from Baseline in Stool Consistency, Mean (SD) (Active Combined, Week 6, ITT Population): 1.62 (1.525)
- Change from Baseline in Stool Consistency, Mean (SD) (Active Combined, Week 6, ITT Population-Excluding Duplicate Patients): 1.62 (1.524)
- Change from Baseline in Stool Consistency, Mean (SD) (Active Combined, Week 7, ITT Population): 1.57 (1.494)
- Change from Baseline in Stool Consistency, Mean (SD) (Active Combined, Week 7, ITT Population-Excluding Duplicate Patients): 1.58 (1.498)
- Change from Baseline in Stool Consistency, Mean (SD) (Active Combined, Week 8, ITT Population): 1.62 (1.520)
- Change from Baseline in Stool Consistency, Mean (SD) (Active Combined, Week 8, ITT Population-Excluding Duplicate Patients): 1.62 (1.523)
- Change from Baseline in Stool Consistency, Mean (SD) (Active Combined, Week 9, ITT Population): 1.65 (1.487)
- Change from Baseline in Stool Consistency, Mean (SD) (Active Combined, Week 9, ITT Population-Excluding Duplicate Patients): 1.65 (1.489)
- Change from Baseline in Stool Consistency, Mean (SD) (Active Combined, Week 10, ITT Population): 1.62 (1.485)
- Change from Baseline in Stool Consistency, Mean (SD) (Active Combined, Week 10, ITT Population-Excluding Duplicate Patients): 1.62 (1.491)
- Change from Baseline in Stool Consistency, Mean (SD) (Active Combined, Week 11, ITT Population): 1.58 (1.547)
- Change from Baseline in Stool Consistency, Mean (SD) (Active Combined, Week 11, ITT Population-Excluding Duplicate Patients): 1.59 (1.548)
- Change from Baseline in Stool Consistency, Mean (SD) (Active Combined, Week 12, ITT Population): 1.64 (1.483)
- Change from Baseline in Stool Consistency, Mean (SD) (Active Combined, Week 12, ITT Population-Excluding Duplicate Patients): 1.64 (1.484)
